Assay results from article PMC2832019, “In Vitro Metabolic and Mitogenic Signaling of Insulin Glargine and Its Metabolites” (PLoS ONE, 2010).

What was measured:
human IR-A [1] = assay: Competitive receptor binding (SPA), IR-A
Method: (§1) The binding of the different insulins to the human IR-A and IR-B was analyzed in a competitive binding assay using the scintillation proximity assay as previously described, [30]. […] Briefly, cells were grown to confluence and gently detached, transferred to a centrifugation tube followed by centrifugation for 10 minutes at 600×g at 4°C. The pellet was resuspended in ice-cold 2.25 STM buffer (2.25 mol/L sucrose, 5 mmol/L Tris-HCl pH 7.4, 5 mmol/L MgCl2, 1x Complete Protease Inhibitor) and disrupted using a hand-held Dounce homogenizer followed by sonication. This homogenate was transferred to a centrifugation tube, overlaid with 0.8 STM buffer (0.8 mol/L sucrose, 5 mmol/L Tris-HCl pH 7.4, 5 mmol/L MgCl2, 1x Complete Protease Inhibitor) and centrifuged for 90 minutes at 100 000×g at 4°C. The emerging pellicle at the interface was collected, transferred to a new tube and washed two times with PBS by centrifugation for 10 minutes at 1500×g. The final pellet was resuspended in a small volume of dilution buffer (50 mmol/L Tris-HCl pH 7.4, 5 mmol/L MgCl2, 1x Complete Protease Inhibitor) and homogenized with a Dounce homogenizer. These plasma membrane preparations were stored until usage at –80°C.
(§2) Binding experiments were conducted in 96-well microplates. Per well 2 µg of membranes were incubated with 0.25 mg wheat germ agglutinin polyvinyltoluene polyethylenimine SPA beads, 100 pmol/L A14[^125I]-insulin and various concentrations of unlabeled insulins in a binding buffer containing 0.05 mol/L Tris-HCl pH 7.8, 0.15 mol/L NaCl, 0.1% BSA, Complete Protease Inhibitor for 12 hours at room temperature (23°C). The radioactivity was measured at equilibrium in a microplate scintillation counter (Wallac Microbeta, Freiburg, Germany).
(§3) For each experiment, IC50 or EC50 values were obtained using the 4-parameter logistic model according to Ratkowsky and Reedy (1986). The adjustment was obtained by non-linear regression using the Levenberg-Marquardt algorithm in SAS v9.1.3 software via Biost@t-Speed V2.0-LTS internal application. If necessary, lower and upper asymptotes were set to 0 and 100, respectively.
(§4) The binding of a constant concentration of [^125I]insulin to plasma membranes from CHO cells overexpressing either IR-A or IR-B was measured in presence of increasing concentrations of unlabeled competing ligand after incubation at room temperature for 12 h. All data has been corrected for non-specific binding and are expressed as percentage of [^125I]insulin in absence of competing ligand. To analyze the insulin-stimulated activation and subsequent autophosphorylation of the insulin receptor CHO cells overexpressing the human IR-A (C) or IR-B (D) were stimulated for 15 min at 37°C with increasing concentrations of peptides, then the cells were fixed with 3.7% PFA and the amount of phosphotyrosines was analyzed via In-Cell Western. The data represent mean values ± SEM of at least 3 individual experiments measured in quadruplicate.

human IR-B [2] = assay: Competitive receptor binding (SPA), IR-B
Method: as §1, §2, §3, §4

human IR-A [3] = assay: IR-A autophosphorylation (In-Cell Western); format: cell-based; conditions: CHO cells overexpressing IR-A, 15 min at 37°C, In-Cell Western; means ± SEM, at least three times; read-out: IR-A auto-phosphorylation EC50
Description: (§5) CHO cells expressing either the IR-A or the IR-B isoform were used for IR autophosphorylation assays using In-Cell Western. For the analysis of IGF1R autophosphorylation the receptor was overexpressed in a mouse embryo fibroblast 3T3 Tet off cell line (BD Bioscience, Heidelberg, Germany) that was stably transfected with IGF1R tetracycline-regulatable expression plasmid resulting in the expression of ∼2.6×10^5 IGF1R per cell (as determined by FACS analysis, unpublished data). In order to determine the receptor tyrosine phosphorylation level, cells were seeded into 96-well plates and grown for 48 h. Cells were serum starved with serum-free medium αMEM (PAN Biotech GmbH, Aidenbach, Germany) for 3–4 h. […] After incubation the medium was discarded and the cells were fixed in 3.75% freshly prepared para-formaldehyde for 20 min. Cells were permeabilized with 0.1% Triton-X-100 in PBS for 20 min. Blocking was performed with Odyssey blocking buffer (LI-COR, Bad Homburg, Germany) overnight at 4°C. Anti-pTyr 4G10 (Millipore, Schwalbach, Germany) was incubated for 2 h at room temperature. After incubation of the primary antibody, cells were washed with PBS+0.1% Tween20. The secondary anti-mouse-IgG-800-CW antibody (Rockland, Gilbertsville, PA, USA) was incubated for 1 h. Results were normalized by the quantification of DNA with TO-PRO3 dye (Invitrogen, Karlsruhe, Germany). Data were obtained as relative units (RU) and are presented as fold over basal.
as §3, §4
(§6) Insulin receptor autophosphorylation was studied using CHO cells overexpressing either IR-A or IR-B. For detection an immunocytochemical microplate assay (In-Cell Western) based on two-colour fluorescence was applied.

human IR-B [4] = assay: IR-B autophosphorylation (In-Cell Western); format: cell-based; conditions: CHO cells overexpressing IR-B, 15 min at 37°C, In-Cell Western; means ± SEM, at least three times; read-out: IR-B auto-phosphorylation EC50
Description: as §5, §3, §4, §6

human IGF1R = assay: Competitive binding, IGF1R; conditions: [^125I]IGF-1 as radioactive ligand; means ± SEM, at least three times; read-out: IGF1R affinity IC50
Method: as §2, §3
Figure 4 Activity of insulin analogs on the human IGF1R and mitogenic potential in Saos-2 cells. Analysis of binding to the human IGF1R using [^125I]IGF-1 as radioactive ligand (A) and analysis of the insulin-stimulated autophosphorylation of the human IGF1R overexpressed in MEF cells (B) were done as described in figure 2 and Materials and Methods. Data are given as means ± SEM. […] Confluent cells were starved for 4 h and then incubated for 19 h with increasing concentrations of IGF-1, insulin or analog in serum free medium. [^14C]thymidine was added for further 6 h and the radioactivity measured in a Wallac Micro Scintillation counter. Data are given as means ± SEM from octuplicate sample.

[5] = test system: MCF-7 cells, HCT-116 (colorectal cancer) and PC-3 (prostate cancer) cells; conditions: ref [49]; cited from earlier work
Description: A correlation between IGF1R autophosphorylation and cell proliferation has been recently assumed by Shukla et al., who observed an enhanced growth of the malignant cell line MCF7 after insulin glargine stimulation. The authors have observed 10% and 50% increases of cellular proliferation at 0.31 and about 15 nmol/L. […] Unfortunately, no dose-response curve of IGF1R autophosphorylation as well as no proliferation data from siRNA knockdown of IR have ...

higher affinity for IR-A than IR-B (human IR-A [1]; IR-A relative to IR-B) [fold]	IC50 (human IR-A [1]; SPA, WGA PVT PEI beads, 2 µg membranes from CHO cells overexpressing IR-A, 100 pmol/L A14[^125I]-insulin, pH 7.8, 12 h, 23°C, means ± SEM, at least three times, read-out: IR-A affinity IC50) [µM]	IC50 (human IR-B [2]; SPA, WGA PVT PEI beads, 2 µg membranes from CHO cells overexpressing IR-B, 100 pmol/L A14[^125I]-insulin, pH 7.8, 12 h, 23°C, means ± SEM, at least three times, read-out: IR-B affinity IC50) [µM]	EC50 (human IR-A [3]) [µM]	EC50 (human IR-B [4]) [µM]	IC50 (human IGF1R) [µM]	Substance	IR-A binding relative to IGF-1 and human insulin (human IR-A [1]; IR-A, in words)	IR-B binding relative to IGF-1 and human insulin (human IR-B [2]; IR-B, in words)	mitogenic potency [5]
7.5	0.0062 ± 0.00034	0.0466 ± 0.0078	0.0854 ± 0.0055	0.384 ± 0.0684	0.00668 ± 0.00224	IGF-2: IGF-2 obtained from R&D Systems and Cell Sciences	higher affinity than IGF-1 but with lower affinity than human insulin	higher affinity than IGF-1 but with lower affinity than human insulin	–
–	–	–	–	–	–	insulin detemir	–	–	increased mitogenic potency
